Assay results published in US10494341B2, “Compound containing indoleacetic acid core structure and use thereof” (Beijing An Jian Xi Bio-Medical Technology Co., Ltd., priority 2015, dated 2019).

How the values were obtained:
gastric mucosa = assay: Ulcer induction in rats after gavage (lesions of the gastric mucosa); format: in vivo
SW480 cells = assay: Measurement of cellular uptake of compounds (HPLC of intermediate I); format: in vitro ADME; settings: 10 μM
[1] = tested on: colon cancer cells (SW480); settings: SW480 tumors in nude mice; for effect on tumor / on sensitivity of tumor to doxorubicin: doxorubicin 2.5 mg/kg i.p. every 2 days for 5 weeks, agents daily; for death of animals during treatment: doxorubicin 2.5 mg/kg i.p., 6 mice per group
Procedure: The experiment was carried out using compound a in this example. Under sterile conditions, a suspension of colon cancer cells (SW480) in logarithmic growth phase (cell concentration was adjusted to 1×10^7/mL with physiological saline) was inoculated subcutaneously to 5 to 6 weeks old balb/c female nude mice on the right rear back, and each nude mice was inoculated at an amount of 0.3 ml, i.e. the number of cells contained was 3×10^6 per each mouse. 10 days later, subcutaneous transplanted tumor of 100-250 mm^3 appeared. The nude mice with tumor were randomly divided into several groups, each containing 6 mice: (1) control group; (2) doxorubicin group; (3) doxorubicin+amifostine; (4) doxorubicin+Celecoxib+intermediate II; (5) doxorubicin+intermediate I+intermediate II; (6) doxorubicin+low-dose compound a (6 mg/kg/day); (7) doxorubicin+high-dose compound a (15 mg/kg/day). Firstly, the following compounds were administered to each group of nude mice with tumor according to the following doses: intermediate I and intermediate II (3 mg/kg/day respectively), amifostine (400 mg/kg/day), Celecoxib (6 mg/kg/day). Except that amifostine was subcutaneously injected (30 minutes before irradiation), the other protective agents were administered by gavage. The above drugs were administered every day for 5 weeks continuously. 12 hours after the administration, doxorubicin (2.5 mg/kg) was injected intraperitoneally, and it was administered once every 2 days for 5 weeks. During the dosing period, the body weight of the nude mice was measured every two days with a precision electronic balance. The growth of the tumor and whether or not red and swelling and rupture occur were observed every day after inoculation. After tumor formation, the surface morphology and activity of the transplanted tumor were examined, and the longest diameter (a) and the shortest diameter (b) of the tumor nodules were measured every 3 days with a vernier caliper. […] 21 days after administration of doxorubicin, the tail vein blood of mice was collected to perform leukocyte count and blood biochemical index analysis. The tumor tissue and normal peripheral tissues were taken on the last day of treatment, and the content of the intermediate I therein was measured by HPLC (FIG. 9a). At the same time, paraffin sections were made, the occurrence of apoptosis was detected by terminal labeling (FIG. 9b), and the relative survival percentages of normal tissue and tumor tissue were calculated (the results are summarized in FIG. 9b).

COX-2 = biological target: T1, COX-2 (Rattus norvegicus, UniProt P35355); assay: COX-2 activity assay (PGE2 in gastric mucosa, EIA) in LPS-treated rats; format: in vivo; settings: gavage, LPS 2.5 mg/kg-activated
T1 construct: from tissue; host or cells: rat gastric mucosa (LPS-treated rats, in vivo dosing)
T1 sequence (P35355 18-604): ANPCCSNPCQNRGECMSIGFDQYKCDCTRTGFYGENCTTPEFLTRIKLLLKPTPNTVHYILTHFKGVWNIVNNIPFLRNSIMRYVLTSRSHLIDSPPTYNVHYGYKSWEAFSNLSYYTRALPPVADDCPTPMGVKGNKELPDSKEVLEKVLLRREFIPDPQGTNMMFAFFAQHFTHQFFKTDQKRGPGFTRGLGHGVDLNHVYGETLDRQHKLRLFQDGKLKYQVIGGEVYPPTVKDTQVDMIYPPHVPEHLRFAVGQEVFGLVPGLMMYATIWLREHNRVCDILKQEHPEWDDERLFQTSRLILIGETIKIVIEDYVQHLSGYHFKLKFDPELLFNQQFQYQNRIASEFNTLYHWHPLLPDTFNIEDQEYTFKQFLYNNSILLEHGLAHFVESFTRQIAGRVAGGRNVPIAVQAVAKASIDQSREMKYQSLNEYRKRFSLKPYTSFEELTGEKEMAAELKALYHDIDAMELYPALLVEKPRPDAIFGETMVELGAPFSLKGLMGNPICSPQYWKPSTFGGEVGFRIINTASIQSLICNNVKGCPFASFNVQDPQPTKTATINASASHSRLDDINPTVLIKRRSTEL
Procedure: (2) COX-2 activity assay: The assay was similar to that of COX-1, except that LPS was injected intraperitoneally to rats at a dose of 2.5 mg/kg to activate COX-2 in this experiment. After administration, the content of PGE2 in gastric mucosa was measured using an enzyme-linked immunosorbent assay (EIA) kit (operated according to the instructions provided by the manufacturer) and converted to COX2 activity.
(§1) The percentage inhibition rate against COX-1 (FIG. 1a—gastric mucosa, FIG. 1b—myocardium) and COX-2 (FIG. 1c) and the IC50 values (Table 1a—gastric mucosa; Table 1b—myocardium) of each tested pharmaceutical compound were calculated from the above data.

mice (C57BL/6J) = assay: Survival rate of mice irradiated by γ-rays; format: in vivo; settings: 30th day after 8.75 Gy γ-rays, 16 mice per group; for number of survived mice: intermediates each 3 mg/kg/day gavage; for survival rate: compounds 6 mg/kg/day gavage, amifostine 400 mg/kg/day i.p.
Procedure: In this experiment, 10-week-old male mice (C57BL/6J) weighing about 20 g were used as subjects, and 16 mice were taken as a group. The mice were divided into the following groups: 1. no γ-ray+no drug; 2. γ-ray+no drug; 3. γ-ray+amifostine; 4. γ-ray+intermediate I+intermediate II; 5. γ-ray+compound a; 6. γ-ray+compound b; and 7. γ-ray+compound d. Firstly, each group of mice was administered with a protective agent, and the specific amounts were as follows: compound a, b and d: 6 mg/kg/day (8.1 μM), amifostine: 400 mg/kg/day (1.5 mM), intermediate I+Intermediate II: each 3 mg/kg/day (8.1 μM). Except that amifostine was intraperitoneally injected (30 minutes before irradiation, amifostine was administered), the other protective agents were administered by gavage. 12 hours after administration, systemic irradiation was performed using cobalt 60γ-rays at a dose of 8.75Gy and a dose rate of 0.35 Gy/min for 25 minutes, with the radiation source 80 cm away from the mice. The mice were irradiated once, and continuously administered with drugs once daily for 10 days after irradiation. The number of survival mice was recorded. The percentage obtained by dividing the number of survival mice by the total number of mice in the experimental group (16 mice) is survival rate of mice, and the results are summarized in FIG. 7. […] It is noteworthy that in the experimental group using intermediate I+intermediate II, only one mouse is survived.

COX-1 in gastric mucosa = biological target: T2, COX-1 in gastric mucosa (Rattus norvegicus, UniProt Q63921); assay: COX-1 activity assay, gastric mucosa (thromboxane B2 EIA) after oral dosing of A23187-treated rats; format: in vivo; settings: for reduction of inhibition against COX-1 in gastric mucosal tissue compared with intermediate I: gavage 1, 3, 9 mg/kg/day, intermediate I 0.5 mg/kg, 6 h after dosing; for effect of inhibiting COX-1 in gastric mucosa: gavage, A23187-activated
T2 construct: from tissue; host or cells: rat gastric mucosa (in vivo dosing, tissue homogenate supernatant)
T2 sequence (Q63921 27-602): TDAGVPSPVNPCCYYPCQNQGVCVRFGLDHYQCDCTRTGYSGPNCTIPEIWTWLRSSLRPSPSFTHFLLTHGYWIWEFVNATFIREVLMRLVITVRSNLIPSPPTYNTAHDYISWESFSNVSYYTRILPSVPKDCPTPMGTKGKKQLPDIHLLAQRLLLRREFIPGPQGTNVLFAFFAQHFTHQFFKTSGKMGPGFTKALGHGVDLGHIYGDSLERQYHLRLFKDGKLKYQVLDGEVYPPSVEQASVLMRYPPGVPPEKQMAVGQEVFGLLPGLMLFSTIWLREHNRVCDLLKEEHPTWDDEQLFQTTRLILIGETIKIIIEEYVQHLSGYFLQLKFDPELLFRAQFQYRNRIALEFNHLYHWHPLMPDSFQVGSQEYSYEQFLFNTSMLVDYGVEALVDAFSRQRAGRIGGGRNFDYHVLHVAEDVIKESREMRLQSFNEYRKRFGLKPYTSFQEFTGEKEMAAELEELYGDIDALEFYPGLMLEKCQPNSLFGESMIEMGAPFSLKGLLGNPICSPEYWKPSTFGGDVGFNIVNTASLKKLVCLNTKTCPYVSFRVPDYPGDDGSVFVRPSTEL
Procedure: (1) COX-1 activity assay: 2 hours after intraperitoneal injection of calcium ionophore A23187 (50 mg/kg) to rats, each of the compounds a, b, c, d, e and f was orally administered (gavage) to three rats at a dose of 1, 3 and 9 mg/kg/day, respectively; the intermediate I was orally administered as a control drug to three rats at a dose of 0.5 mg/kg; and additional three rats were only administered with COX-1 activator, the calcium ionophore A23187, and were not administered with the compounds of the present invention. 6 hours after the compound of the present invention was administered, the animals were sacrificed, gastric mucosal tissue and myocardial tissue were collected, homogenized, and subjected to high-speed centrifugation (12,000 rpm), and the supernatant was collected for use. The amount of thromboxane B2 was measured using an enzyme-linked immunosorbent assay (EIA) kit (operated in accordance with the instructions provided by the manufacturer) and converted to COX1 activity.
as §1

A549 cells = assay: A549 transplanted tumors in nude mice, compound used alone; format: in vivo; settings: A549; cisplatin 5 mg/kg/week i.p.; compound a 5 and 25 mg/kg/day; intermediates 12.5 mg/kg/day each
Procedure: Except cisplatin (intraperitoneal injection, once a week), all compounds were administered by gavage, once a day for 5 weeks continuously.

HT-29 cells = assay: HT-29 transplanted tumors in nude mice, compound a in combination with doxorubicin; format: in vivo; settings: Doxorubicin 2 mg/kg/week i.p. or compound a 3 mg/kg/day gavage, 4 weeks
Procedure: Compound a was administered by gavage once a day for 4 weeks continuously; Doxorubicin was injected intraperitoneally once a week for 4 weeks. Body weight and tumor volume of animals were measured and calculated according to Example 9.

peripheral leukocytes = assay: Protection against blood cell (leukocyte) damage induced by paclitaxel; format: in vivo; settings: mice, paclitaxel; amifostine 400 mg/kg/day i.p.
Procedure: In this experiment, 10-week-old male mice (C57BL/6J) weighing about 20 grams were used as subjects, and 6 mice were taken as a group. The mice were divided into 5 groups: 1. Paclitaxel; 2. Paclitaxel+amifostine; 3. Paclitaxel+intermediate I+intermediate II; 4. paclitaxel+compound a; and 5. paclitaxel+compound b. Firstly, each group of mice was administered with a protective agent, and the specific amounts were as follows: compounds a and b: each 6 mg/kg/day (8.1 μM), amifostine: 400 mg/kg/day (1.5 mM), intermediate I+Intermediate II: each 3 mg/kg/day (8.1 μM). Except that amifostine was intraperitoneally injected (30 minutes before administering Paclitaxel, amifostine was administered), the other protective agents were administered by gavage (once a day, 25 times continuously). 12 hours after the compound a and the corresponding protective agents were administered, Paclitaxel was intraperitoneally injected (10 mg/kg/day, once every 3 days, 9 times continuously), and 7, 14, 21, 28 days later, blood of mice was drawn respectively. The number of leukocytes was analyzed.

## COc1ccc2c(c1)c(CC(=O)O)c(C)n2C(=O)c1ccc(Cl)cc1 [intermediate I, reference compound]
Gastric mucosa; gavage three times, 10 μM
  prevalence of ulcer: 0/6
Gastric mucosa; gavage three times, 30 μM
  prevalence of ulcer: 2/6
Gastric mucosa; gavage three times, 90 μM
  prevalence of ulcer: 6/6
Gastric mucosa; gavage three times, Dose 90 μM/kg, 12 hours after last gavage
  Ulcer index: 72.8 ± 6.82
Gastric mucosa; gavage, high concentration (90 μM)
  ulcer at high concentration: very serious ulcer
SW480 cells
  uptake by cells: difficult to be efficiently taken up by the cells
[1]
  effect on tumor / on sensitivity of tumor to doxorubicin: can also enhance the sensitivity of the tumor to Doxorubicin
  death of animals during treatment: die of gastrointestinal bleeding

## COc1c(O)c(C)c(CCCCCCCCCCOC(=O)CC2=C(C)C(=Cc3ccc([S+](C)[O-])cc3)c3cc(F)ccc32)c(O)c1OC (stereo not shown) [compound d]
COX-2
  inhibition against COX-2: weaker than those of compounds a and b
Mice (C57BL/6J)
  number of survived mice: 11 mice
  survival rate: 68.75%
COX-1 in gastric mucosa
  reduction of inhibition against COX-1 in gastric mucosal tissue compared with intermediate I: ~700 fold
  effect of inhibiting COX-1 in gastric mucosa: almost lose the effect of inhibiting COX-1 in gastric mucosa

## N.N.[Cl][Pt][Cl] [cisplatin, reference compound]
A549 cells
  inhibitory effect on the tumor: only mild inhibitory effect

## COc1cccc2c1C(=O)c1c(O)c3c(c(O)c1C2=O)C[C@@](O)(C(=O)CO)C[C@@H]3O[C@H]1C[C@H](N)[C@H](O)[C@H](C)O1 [Doxorubicin]
HT-29 cells
  inhibition of the tumor, administered alone: only slightly inhibited
[1]
  effect on tumor / on sensitivity of tumor to doxorubicin: mild inhibitory effect
  death of animals during treatment: three

## COC1=C(OC)C(=O)C(CCCCCCCCCCOC(=O)CC2=C(C)C(=Cc3ccc([S+](C)[O-])cc3)c3cc(F)ccc32)=C(C)C1=O (stereo not shown) [compound c]
COX-2
  inhibition against COX-2: weaker than those of compounds a and b
COX-1 in gastric mucosa
  reduction of inhibition against COX-1 in gastric mucosal tissue compared with intermediate I: ~700 fold
  effect of inhibiting COX-1 in gastric mucosa: almost lose the effect of inhibiting COX-1 in gastric mucosa

## COC1=C(OC)C(=O)C(COC(=O)Cc2c(C)n(C(=O)c3ccc(Cl)cc3)c3cc(OC)ccc23)=C(C)C1=O [compound f]
COX-2
  inhibition against COX-2: weaker than those of compounds a and b
COX-1 in gastric mucosa
  reduction of inhibition against COX-1 in gastric mucosal tissue compared with intermediate I: ~700 fold
  effect of inhibiting COX-1 in gastric mucosa: almost lose the effect of inhibiting COX-1 in gastric mucosa

## NCCCNCCSP(=O)(O)O [amifostine, reference compound]
Peripheral leukocytes
  protective effect on leukocytes at the early stage of simulated chemotherapy: slight better than that of the compounds a and b
[1]
  effect on tumor / on sensitivity of tumor to doxorubicin: significantly interferes with the inhibitory effect of doxorubicin on the tumor
[1]; with doxorubicin
  protection of normal tissue and cells from doxorubicin: effectively protects the normal tissue
Mice (C57BL/6J)
  number of survived mice: 10 mice
  survival rate: 62.5%
